The text below walks through data of publication PMC6199744, “Development of Chemical Proteomics for the Folateome and Analysis of the Kinetoplastid Folateome” (ACS Infectious Diseases, 2018).

Holding throughout (type): binding
The target in test [1] is T1, HeLa cell extract proteins (Homo sapiens, UniProt P00491).
T1 construct: endogenous in cells; host or cells: HeLa cell extract
T1 sequence (P00491 1-289): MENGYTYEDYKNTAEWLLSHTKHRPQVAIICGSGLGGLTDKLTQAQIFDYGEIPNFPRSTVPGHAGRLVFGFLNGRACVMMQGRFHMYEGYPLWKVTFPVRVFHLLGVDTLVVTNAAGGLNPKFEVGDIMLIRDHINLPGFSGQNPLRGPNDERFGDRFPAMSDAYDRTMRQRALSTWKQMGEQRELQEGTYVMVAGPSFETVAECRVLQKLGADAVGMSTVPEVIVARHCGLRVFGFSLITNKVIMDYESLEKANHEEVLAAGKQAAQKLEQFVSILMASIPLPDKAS

In test [2] the target is T2, HeLa cell extract proteins (Homo sapiens, UniProt P13807).
T2 construct: endogenous in cells; host or cells: HeLa cell extract
T2 sequence (P13807 1-737): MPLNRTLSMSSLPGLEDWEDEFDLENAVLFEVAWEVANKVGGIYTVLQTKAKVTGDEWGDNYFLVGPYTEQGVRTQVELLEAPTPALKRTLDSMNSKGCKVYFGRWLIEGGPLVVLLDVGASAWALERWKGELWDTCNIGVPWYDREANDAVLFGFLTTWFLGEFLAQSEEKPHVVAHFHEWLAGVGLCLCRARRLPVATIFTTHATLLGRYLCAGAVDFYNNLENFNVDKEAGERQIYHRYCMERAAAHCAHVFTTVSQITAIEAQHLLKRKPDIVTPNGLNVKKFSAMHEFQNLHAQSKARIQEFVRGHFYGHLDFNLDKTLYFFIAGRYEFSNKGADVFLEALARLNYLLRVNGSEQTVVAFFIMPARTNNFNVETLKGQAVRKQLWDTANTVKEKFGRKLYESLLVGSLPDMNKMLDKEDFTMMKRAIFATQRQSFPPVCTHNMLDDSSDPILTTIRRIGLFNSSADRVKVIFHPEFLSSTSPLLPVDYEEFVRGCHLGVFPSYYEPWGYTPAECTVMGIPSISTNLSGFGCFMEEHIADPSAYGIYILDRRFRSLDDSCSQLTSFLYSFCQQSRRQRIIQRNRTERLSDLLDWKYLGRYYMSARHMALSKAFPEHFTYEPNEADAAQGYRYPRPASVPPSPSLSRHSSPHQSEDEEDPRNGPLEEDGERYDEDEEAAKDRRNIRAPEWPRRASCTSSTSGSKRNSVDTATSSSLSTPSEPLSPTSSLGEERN

Test [3] concerns the target T3, HeLa cell extract proteins (Homo sapiens, UniProt P14625).
T3 construct: endogenous in cells; host or cells: HeLa cell extract

In test [4] the target is T4, HeLa cell extract proteins (Homo sapiens, UniProt P60174).
T4 construct: endogenous in cells; host or cells: HeLa cell extract

For test [5], the target named is T5, HeLa cell extract proteins (Homo sapiens, UniProt P61106).
T5 construct: endogenous in cells; host or cells: HeLa cell extract

In test [6] the target is T6, HeLa cell extract proteins (Homo sapiens, UniProt Q5JVF3).
T6 construct: endogenous in cells; host or cells: HeLa cell extract

Test [7] addresses T7, HeLa cell extract proteins (Homo sapiens, UniProt Q92734).
T7 construct: endogenous in cells; host or cells: HeLa cell extract

The target of test [8] is T8, HeLa cell extract proteins (Homo sapiens, UniProt Q9GZT8).
T8 construct: endogenous in cells; host or cells: HeLa cell extract
T8 sequence (Q9GZT8 1-377): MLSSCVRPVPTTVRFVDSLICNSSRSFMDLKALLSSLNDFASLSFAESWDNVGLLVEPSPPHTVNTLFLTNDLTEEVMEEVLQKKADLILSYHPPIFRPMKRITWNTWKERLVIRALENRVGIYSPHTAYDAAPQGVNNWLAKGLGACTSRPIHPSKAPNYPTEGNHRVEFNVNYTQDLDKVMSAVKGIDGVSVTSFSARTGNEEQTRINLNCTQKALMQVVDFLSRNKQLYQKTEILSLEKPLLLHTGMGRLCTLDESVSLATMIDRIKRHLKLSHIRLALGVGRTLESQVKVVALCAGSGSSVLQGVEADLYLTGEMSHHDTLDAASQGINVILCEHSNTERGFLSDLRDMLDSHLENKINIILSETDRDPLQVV

The target in test [9] is T9, HeLa cell extract proteins (Homo sapiens, UniProt Q9HBU6).
T9 construct: endogenous in cells; host or cells: HeLa cell extract
T9 sequence (Q9HBU6 1-452): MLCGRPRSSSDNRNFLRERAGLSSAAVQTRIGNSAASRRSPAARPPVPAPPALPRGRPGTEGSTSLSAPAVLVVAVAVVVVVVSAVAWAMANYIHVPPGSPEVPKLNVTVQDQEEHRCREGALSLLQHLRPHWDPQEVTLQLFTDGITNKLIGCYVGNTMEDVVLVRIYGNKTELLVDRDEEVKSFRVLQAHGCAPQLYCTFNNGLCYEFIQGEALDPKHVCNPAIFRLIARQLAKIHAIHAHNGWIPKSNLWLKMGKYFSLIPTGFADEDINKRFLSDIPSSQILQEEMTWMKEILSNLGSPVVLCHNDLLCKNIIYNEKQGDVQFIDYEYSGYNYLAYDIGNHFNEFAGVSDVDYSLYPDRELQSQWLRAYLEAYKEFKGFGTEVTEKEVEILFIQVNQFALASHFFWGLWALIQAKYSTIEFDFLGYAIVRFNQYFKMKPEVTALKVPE

Where [10] appears, read: HeLa, protein TPI1 (ISOFORM 1 OF TRIOSEPHOSPHATE ISOMERASE.).

Read-outs that look alike come from different tables or passages of the source.

T7 sequence (Q92734 whole entry): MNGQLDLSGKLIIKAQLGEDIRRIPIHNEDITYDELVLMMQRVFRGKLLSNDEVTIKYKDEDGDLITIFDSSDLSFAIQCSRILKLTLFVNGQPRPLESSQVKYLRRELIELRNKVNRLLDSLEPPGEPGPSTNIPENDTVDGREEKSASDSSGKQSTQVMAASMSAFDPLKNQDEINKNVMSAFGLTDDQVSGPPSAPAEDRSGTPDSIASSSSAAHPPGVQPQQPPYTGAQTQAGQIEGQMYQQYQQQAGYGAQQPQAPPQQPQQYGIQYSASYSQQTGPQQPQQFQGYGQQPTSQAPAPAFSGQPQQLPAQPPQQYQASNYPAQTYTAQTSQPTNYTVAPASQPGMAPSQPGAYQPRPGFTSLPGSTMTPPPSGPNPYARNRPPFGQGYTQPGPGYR
T6 sequence (Q5JVF3 whole entry): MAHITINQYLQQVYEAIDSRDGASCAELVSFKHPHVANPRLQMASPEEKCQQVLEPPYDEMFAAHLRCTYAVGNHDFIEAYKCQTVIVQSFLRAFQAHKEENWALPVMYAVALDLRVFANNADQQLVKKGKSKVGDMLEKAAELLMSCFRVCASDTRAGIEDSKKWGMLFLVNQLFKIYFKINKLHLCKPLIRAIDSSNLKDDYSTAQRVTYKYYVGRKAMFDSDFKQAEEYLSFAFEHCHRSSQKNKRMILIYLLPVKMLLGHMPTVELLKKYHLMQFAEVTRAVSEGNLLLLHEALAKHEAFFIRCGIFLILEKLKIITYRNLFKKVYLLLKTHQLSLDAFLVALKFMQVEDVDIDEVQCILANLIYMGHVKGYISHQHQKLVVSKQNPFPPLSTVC
T4 sequence (P60174 whole entry): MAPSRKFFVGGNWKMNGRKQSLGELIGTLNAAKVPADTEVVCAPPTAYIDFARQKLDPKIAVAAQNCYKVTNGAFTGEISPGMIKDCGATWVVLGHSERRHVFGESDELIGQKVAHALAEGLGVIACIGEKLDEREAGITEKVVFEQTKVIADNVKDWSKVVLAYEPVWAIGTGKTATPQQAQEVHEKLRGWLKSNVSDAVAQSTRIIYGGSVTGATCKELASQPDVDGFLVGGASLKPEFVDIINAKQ
T3 sequence (P14625 22-803): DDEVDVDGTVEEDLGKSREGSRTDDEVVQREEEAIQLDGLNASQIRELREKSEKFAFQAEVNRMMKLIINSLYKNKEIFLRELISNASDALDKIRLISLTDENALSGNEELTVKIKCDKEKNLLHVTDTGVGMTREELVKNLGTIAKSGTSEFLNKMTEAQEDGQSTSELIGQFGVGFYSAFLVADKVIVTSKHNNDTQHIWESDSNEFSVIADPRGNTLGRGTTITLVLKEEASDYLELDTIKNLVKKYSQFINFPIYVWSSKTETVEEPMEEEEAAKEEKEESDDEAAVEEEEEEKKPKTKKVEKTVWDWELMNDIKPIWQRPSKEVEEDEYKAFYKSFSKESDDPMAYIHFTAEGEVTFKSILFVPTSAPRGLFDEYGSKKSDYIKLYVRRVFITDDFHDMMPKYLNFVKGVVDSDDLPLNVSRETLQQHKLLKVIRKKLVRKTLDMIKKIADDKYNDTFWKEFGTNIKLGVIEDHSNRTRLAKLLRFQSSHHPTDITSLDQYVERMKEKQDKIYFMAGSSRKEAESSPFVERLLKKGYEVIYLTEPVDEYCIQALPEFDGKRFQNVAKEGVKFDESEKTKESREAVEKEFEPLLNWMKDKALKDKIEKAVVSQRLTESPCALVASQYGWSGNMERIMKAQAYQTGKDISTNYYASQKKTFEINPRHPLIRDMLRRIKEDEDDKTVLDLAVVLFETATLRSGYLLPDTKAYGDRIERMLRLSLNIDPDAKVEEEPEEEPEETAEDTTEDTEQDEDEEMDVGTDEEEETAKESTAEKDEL
T5 sequence (P61106 whole entry): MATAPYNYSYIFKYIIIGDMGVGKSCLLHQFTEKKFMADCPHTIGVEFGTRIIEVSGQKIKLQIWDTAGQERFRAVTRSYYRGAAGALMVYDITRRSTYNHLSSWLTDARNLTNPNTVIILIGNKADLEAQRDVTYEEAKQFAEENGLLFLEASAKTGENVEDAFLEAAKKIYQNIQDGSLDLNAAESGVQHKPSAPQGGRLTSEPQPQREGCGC

With `Nc1nc2cccc(-c3ccccc3)c2n1Cc1ccc(Cl)c(Cl)c1` [compound 3], the “fold changes relative to vehicle control” value in test [1] (protein NP, HeLa) was found to be 0.96; in test [2] (captured protein GYS1, HeLa) it was 0.93; in test [3] (HeLa, protein HSP90B1 (E[…].)) it was 0.91 fold; in test [4] (HeLa, protein TPI1 (ISOFORM 1 OF TRIOS[…].)) it was 0.88 fold; in test [5] (captured protein RAB14, HeLa), 0.82; in [6] (HeLa, protein PCID2), 1.2. The “fold changes relative to vehicle control” value in test [7] (protein TFG, HeLa) is recorded as 1.02; in test [8] (captured protein NIF3L1, HeLa), 0.98; in test [9] (HeLa, protein ETNK1) it was 1.53.

With `NCCOCCOCC(=O)Nc1nc2ncc(CNc3ccc(C(=O)NC(CCC(=O)O)C(=O)O)cc3)nc2c(=O)[nH]1` (stereo not drawn) [compound 6], the “fold changes relative to vehicle control” value in [1] (protein NP, HeLa) is given as 1.08; in test [2] (HeLa, protein GYS1) it was 0.98; in [3] (HeLa, protein HSP90B1), 1.18; in [4] (HeLa, protein TPI1), 1.41; in test [5] (HeLa, protein RAB14) it was 0.97; in test [6] (protein PCID2, HeLa) it was 0.91. Moreover, the “fold changes relative to vehicle control” value is 1.01 in test [7] (HeLa, captured protein TFG); 0.25 in test [8] (protein NIF3L1, HeLa); 0.96 in test [9] (protein ETNK1, HeLa).

Regarding `Nc1nc2[nH]cc(CCc3ccc(C(=O)N[C@@H](CCC(=O)O)C(=O)O)cc3)c2c(=O)[nH]1` [PTX, pemetrexed], the “fold changes relative to vehicle control” value in test [1] stood at 0.89; in [2] it was 0.94; in [3] it was 1.14; in [4] it was 1.22; in test [5], 0.95; in [6], 0.68. Further, the entries for the “fold changes relative to vehicle control” value in test [7], in [8] and in test [9] were 1.05, 0.9 and 0.91, respectively.

Turning to `Nc1nc2c(c(=O)[nH]1)N(C=O)C(CNc1ccc(C(=O)N[C@@H](CCC(=O)O)C(=O)O)cc1)CN2` (stereo partly drawn) [LEU, leucovorin], the “fold changes relative to vehicle control” value in test [1] (protein NP, HeLa) amounted to 0.9; in [2] (HeLa, protein GYS1), 0.97; in test [3] (HeLa, protein HSP90B1) it was 1.04; in [4] (HeLa, protein TPI1) it was 1.03; in test [5] (HeLa, protein RAB14) it was 0.95; in test [6] (protein PCID2, HeLa) it was 0.74. The “fold changes relative to vehicle control” value in test [7] (HeLa, captured protein TFG) worked out at 1.01; in [8] (protein NIF3L1, HeLa), 0.95; in test [9] (protein ETNK1, HeLa), 0.99.

On to `CCCCCCOc1ccc(Cc2cnc(N)nc2N)cc1` [compound 1], for which the “fold changes relative to vehicle control” value in [1] (protein NP, HeLa) amounted to 1.16; in [2] (captured protein GYS1, HeLa), 0.9; in test [3] (HeLa, protein HSP90B1 (E[…].)), 1.35 fold; in test [4] (setting [10]), 1.44 fold; in test [5] (captured protein RAB14, HeLa), 0.89; in test [6] (HeLa, protein PCID2), 1.13. In addition, the “fold changes relative to vehicle control” value in test [7] (protein TFG, HeLa) turned out to be 0.96; in test [8] (captured protein NIF3L1, HeLa), 0.5; in test [9] (HeLa, protein ETNK1) it was 0.94.

In the case of `NCCCNc1ccc(C(=O)NC(CCC(=O)O)C(=O)O)cc1` (stereo not drawn) [compound 7], the “fold changes relative to vehicle control” value was found to be 0.89 in test [1] (protein NP, HeLa); 0.98 in [2] (HeLa, protein GYS1); 0.89 in [3] (HeLa, protein HSP90B1); 1 in [4] (HeLa, protein TPI1); 0.86 in test [5] (HeLa, protein RAB14); 0.75 in test [6] (protein PCID2, HeLa). Also, the “fold changes relative to vehicle control” value in test [7] (HeLa, captured protein TFG) turned out to be 1.06; in test [8] (protein NIF3L1, HeLa), 0.94; in [9] (protein ETNK1, HeLa) it was 1.01.

Take `CCCCCCOc1cccc(Cc2cnc(N)nc2N)c1` [compound 2]: the “fold changes relative to vehicle control” value in test [1] (protein NP, HeLa) is 1.4; in test [2] (captured protein GYS1, HeLa), 0.84; in test [3] (HeLa, protein HSP90B1 (ENDOPLASMIN PRECURSOR.)) it was 2.51 fold; in test [4] (setting [10]) it was 2.37 fold; in [5] (captured protein RAB14, HeLa) it was 1.22; in test [6] (HeLa, protein PCID2) it was 0.97. Besides, the “fold changes relative to vehicle control” value in test [7] (protein TFG, HeLa) is 1.16; in test [8] (captured protein NIF3L1, HeLa) it was 0.97; in test [9] (HeLa, protein ETNK1) it was 0.99.
